This note sets out measurements from patent publication US20240368135A1 (VERTEX PHARMACEUTICALS INCORPORATED, priority 2021, published 2024).

Like-named read-outs stand apart in the source and are kept apart here.

This assay deals with human NaV 1.8 (Homo sapiens, UniProt Q9Y5Y9). The assay is described as follows: E-VIPR assay detecting and measuring NaV inhibition properties. The assay is classed as cell-based. As to conditions: HEK cells expressing truncated human NaV 1.8. The procedure, abridged:
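Membrane potential was followed by coumarin/oxonol FRET during electrical field stimulation of matrigel-seeded HEK cells carrying truncated human NaV1.8 plus KIR2.1. Dosing used 11 points, 3-fold steps, top 300 nM final, 0.625% DMSO, with or without 25% human serum.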

The mark [1] stands for this setting: no human serum, read-out: IC50 in the E-VIPR Assay.
[2] abbreviates: in the presence of human serum (compound numbers followed by *), read-out: IC50 in the E-VIPR Assay, performed in the presence of human serum.

Chain of human NaV 1.8 (Q9Y5Y9 126-399 limits assumed): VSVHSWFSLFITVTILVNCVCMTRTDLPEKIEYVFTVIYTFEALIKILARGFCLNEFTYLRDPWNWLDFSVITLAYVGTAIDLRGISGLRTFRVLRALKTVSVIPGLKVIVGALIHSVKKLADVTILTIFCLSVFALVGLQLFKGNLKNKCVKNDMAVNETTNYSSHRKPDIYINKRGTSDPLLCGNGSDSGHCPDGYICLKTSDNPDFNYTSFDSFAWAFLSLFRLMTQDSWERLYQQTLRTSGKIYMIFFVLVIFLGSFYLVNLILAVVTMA
Chain of human NaV 1.8 (Q9Y5Y9 660-890 limits assumed): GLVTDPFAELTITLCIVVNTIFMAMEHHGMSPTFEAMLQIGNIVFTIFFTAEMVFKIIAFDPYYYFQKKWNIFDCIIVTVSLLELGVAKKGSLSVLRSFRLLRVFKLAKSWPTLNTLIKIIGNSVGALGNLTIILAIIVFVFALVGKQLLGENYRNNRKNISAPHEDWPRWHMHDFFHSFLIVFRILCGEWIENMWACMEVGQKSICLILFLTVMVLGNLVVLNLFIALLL
Chain of human NaV 1.8 (Q9Y5Y9 1148-1722 limits assumed): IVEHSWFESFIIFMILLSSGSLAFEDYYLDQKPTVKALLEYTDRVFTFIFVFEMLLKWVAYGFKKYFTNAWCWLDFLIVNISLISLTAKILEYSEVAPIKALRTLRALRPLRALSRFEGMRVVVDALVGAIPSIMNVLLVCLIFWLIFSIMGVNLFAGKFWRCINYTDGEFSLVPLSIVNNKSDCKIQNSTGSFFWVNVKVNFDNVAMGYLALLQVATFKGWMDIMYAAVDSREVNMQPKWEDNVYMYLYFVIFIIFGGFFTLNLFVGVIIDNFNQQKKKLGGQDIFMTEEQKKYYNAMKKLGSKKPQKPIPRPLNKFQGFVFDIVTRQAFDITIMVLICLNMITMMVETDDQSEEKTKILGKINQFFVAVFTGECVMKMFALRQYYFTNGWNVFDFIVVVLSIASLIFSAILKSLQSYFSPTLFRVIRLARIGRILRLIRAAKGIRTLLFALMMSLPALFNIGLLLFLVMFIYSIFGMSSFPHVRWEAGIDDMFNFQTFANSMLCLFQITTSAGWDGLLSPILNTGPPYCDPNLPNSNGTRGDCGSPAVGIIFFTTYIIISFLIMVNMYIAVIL

The term IC50 denotes the concentration that gives 50% inhibition. In the case of `COc1c([C@H]2[C@H](C(=O)Nc3ccnc(C[C@H]4COCCN4)c3)O[C@@](C)(C(F)(F)F)[C@H]2C)ccc(F)c1F` [Compound 214, (2R,3S,4S,5R)-3-(3,4-difluoro-2-methoxyphenyl)-4,5-dimethyl-N-(2-(((S)-morpholin-3-yl)methyl)pyridin-4-yl)-5-(trifluoromethyl)tetrahydrofuran-2-carboxamide], the IC50 under setting [1] was in the range of 10 to 100 nM.

As to `COc1c([C@H]2[C@H](C(=O)Nc3cn(C)cn3)O[C@@](C)(C(F)(F)F)[C@H]2C)ccc(F)c1F` [Compound 318, (2R,3S,4S,5R)-3-(3,4-difluoro-2-methoxyphenyl)-4,5-dimethyl-N-(1-methyl-1H-imidazol-4-yl)-5-(trifluoromethyl)-tetrahydrofuran-2-carboxamide], under setting [1], the IC50 is not below 1000 nM.

For `COc1c([C@H]2[C@H](C(=O)Nc3cnnc(C(O)CO)c3)O[C@@](C)(C(F)(F)F)[C@H]2C)ccc(F)c1F` (single isomer, unassigned) [Compound 206, rel-(2R*,3S*,4S*,5R*)-3-(3,4-difluoro-2-methoxyphenyl)-N-(6-(1,2-dihydroxyethyl)pyridazin-4-yl)-4,5-dimethyl-5-(trifluoromethyl)tetrahydrofuran-2-carboxamide], the IC50 under setting [2] fell in the range of 10 to 100 nM.

For `COc1c([C@H]2[C@H](C(=O)Nc3ccc(N)nc3)O[C@@](C)(C(F)(F)F)[C@H]2C)ccc(F)c1F` [Compound 523, (2R,3S,4S,5R)—N-(6-aminopyridin-3-yl)-3-(3,4-difluoro-2-methoxyphenyl)-4,5-dimethyl-5-(trifluoromethyl)tetrahydrofuran-2-carboxamide], under setting [1], the IC50 is less than 10 nM.

With `C[C@H]1[C@@H](c2ccc(F)c(F)c2OC(F)F)[C@H](C(=O)Nc2ccnc(N3CCNCC3=O)c2)O[C@@]1(C)C(F)(F)F` [Compound 514, (2R,3S,4S,5R)-3-(2-(difluoromethoxy)-3,4-difluorophenyl)-4,5-dimethyl-N-(2-(2-oxopiperazin-1-yl)pyridin-4-yl)-5-(trifluoromethyl)tetrahydrofuran-2-carboxamide], under setting [1], the half-inhibitory concentration (IC50) fell in the range of 10 to 100 nM.

For the compound `COc1c([C@H]2[C@H](C(=O)Nc3ccnc(C(CO)OC)c3)O[C@@](C)(C(F)(F)F)[C@H]2C)ccc(F)c1F` (single isomer, unassigned) [Compound 248, rel-(2R*,3S*,4S*,5R*)-3-(3,4-difluoro-2-methoxyphenyl)-N-(2-(2-hydroxy-1-methoxyethyl)pyridin-4-yl)-4,5-dimethyl-5-(trifluoromethyl)tetrahydrofuran-2-carboxamide], the IC50 under setting [1] was less than 10 nM.

As to `C[C@@H]1[C@H](c2ccc(F)c(F)c2OC(F)F)[C@@H](C(=O)Nc2ccc(C(N)=O)nc2)O[C@]1(C)C(F)(F)F` (single isomer, unassigned) [Compound 93], the IC50 under setting [2] was not below 1000 nM.

For the compound `COc1cc(F)ccc1[C@@H]1C[C@](C)(C(F)(F)F)O[C@H]1C(=O)Nc1ccnc(S(C)(=O)=O)c1` (stereo in doubt) [Compound 714, rel-(2R,3S,5R)-3-(4-fluoro-2-methoxyphenyl)-5-methyl-N-(2-(methylsulfonyl)pyridin-4-yl)-5-(trifluoromethyl)tetrahydrofuran-2-carboxamide], the IC50 under setting [2] lay in the range of 100 to 1000 nM.

`COc1c([C@H]2[C@H](C(=O)Nc3cncc(CO)c3)O[C@@](C)(C(F)(F)F)[C@H]2C)ccc(F)c1F` [Compound 383, (2R,3S,4S,5R)-3-(3,4-difluoro-2-methoxyphenyl)-N-(5-(hydroxymethyl)pyridin-3-yl)-4,5-dimethyl-5-(trifluoromethyl)tetrahydrofuran-2-carboxamide]: the IC50 under setting [1] lay within 10 to 100 nM.

As for `COc1c([C@H]2[C@H](C(=O)Nc3ccnc(C4(N(C)C)COC4)c3)O[C@@](C)(C(F)(F)F)[C@H]2C)ccc(F)c1F` [Compound 362, (2R,3S,4S,5R)-3-(3,4-difluoro-2-methoxyphenyl)-N-(2-(3-(dimethylamino)oxetan-3-yl)pyridin-4-yl)-4,5-dimethyl-5-(trifluoromethyl)tetrahydrofuran-2-carboxamide], under setting [1], the IC50 was less than 10 nM.

On to `COc1c([C@@H]2[C@@H](C(=O)Nc3cc(C(O)CO)ncc3F)O[C@](C)(C(F)(F)F)[C@@H]2C)ccc(F)c1C` (single isomer, unassigned) [Compound 139], for which, under setting [2], the IC50 is not below 1000 nM.

Regarding `CCOc1c([C@H]2[C@H](C(=O)Nc3ccn4nnnc4c3)O[C@@](C)(C(F)(F)F)[C@H]2C)ccc(F)c1C` (stereo in doubt) [Compound 123, rel-(2R,3S,4S,5R)-3-(2-ethoxy-4-fluoro-3-methylphenyl)-4,5-dimethyl-N-(tetrazolo[1,5-a]pyridin-7-yl)-5-(trifluoromethyl)tetrahydrofuran-2-carboxamide], the IC50 under setting [1] was less than 10 nM.

For `C[C@H]1[C@@H](c2ccc(F)c(F)c2OC(F)F)[C@H](C(=O)Nc2ccnc(N3CCN(C)CC3=O)c2)O[C@@]1(C)C(F)(F)F` [Compound 516, (2R,3S,4S,5R)-3-[2-(difluoromethoxy)-3,4-difluoro-phenyl]-4,5-dimethyl-N-[2-(4-methyl-2-oxo-piperazin-1-yl)-4-pyridyl]-5-(trifluoromethyl)tetrahydrofuran-2-carboxamide], under setting [1], the IC50 is less than 10 nM.

As to `COc1c(C2C(C(=O)Nc3ccnc(S(=O)(=O)CCO)c3)OC(C)(C(F)(F)F)C2C)ccc(F)c1F` (stereo not shown) [Compound 62, 3-(3,4-difluoro-2-methoxy-phenyl)-N-[2-(2-hydroxyethylsulfonyl)-4-pyridyl]-4,5-dimethyl-5-(trifluoromethyl)tetrahydrofuran-2-carboxamide], under setting [1], the IC50 is less than 10 nM.

With `COc1c([C@H]2[C@H](C(=O)Nc3ccnc(CN4CCC[C@H]4CO)c3)O[C@@](C)(C(F)(F)F)[C@H]2C)ccc(F)c1F` [Compound 386, (2R,3S,4S,5R)-3-(3,4-difluoro-2-methoxyphenyl)-N-(2-(((S)-2-(hydroxymethyl)pyrrolidin-1-yl)methyl)pyridin-4-yl)-4,5-dimethyl-5-(trifluoromethyl)tetrahydrofuran-2-carboxamide], the IC50 under setting [1] was less than 10 nM.

For the compound `C[C@H]1[C@@H](c2ccc(F)c(F)c2OCCO)[C@H](C(=O)Nc2ccnn2C)O[C@@]1(C)C(F)(F)F` [Compound 547, (2R,3S,4S,5R)-3-(3,4-difluoro-2-(2-hydroxyethoxy)phenyl)-4,5-dimethyl-N-(1-methyl-1H-pyrazol-5-yl)-5-(trifluoromethyl)tetrahydrofuran-2-carboxamide], the IC50 under setting [1] was in the range of 100 to 1000 nM.

As for `C[C@H]1[C@@H](c2ccc(F)c(F)c2OCCO)[C@H](C(=O)Nc2ccc3nncn3c2)O[C@@]1(C)C(F)(F)F` [Compound 548], the IC50 under setting [1] lay in the range of 10 to 100 nM.

With `COc1c([C@H]2[C@H](C(=O)Nc3cnc4c(c3)OCC4O)O[C@@](C)(C(F)(F)F)[C@H]2C)ccc(F)c1F` (single isomer, unassigned) [Compound 408, rel-(2R*,3S*,4S*,5R*)-3-(3,4-difluoro-2-methoxyphenyl)-N-(3-hydroxy-2,3-dihydrofuro[3,2-b]pyridin-6-yl)-4,5-dimethyl-5-(trifluoromethyl)-tetrahydrofuran-2-carboxamide], the IC50 under setting [1] lay in the range of 10 to 100 nM.

Consider `CCOc1c([C@@H]2[C@@H](C(=O)Nc3ccnc(S(C)(=N)=O)c3)O[C@](C)(C(F)(F)F)[C@@H]2C)ccc(F)c1C` (relative stereo) [Compound 124, rel-(2S,3R,4R,5S)-3-(2-ethoxy-4-fluoro-3-methylphenyl)-4,5-dimethyl-N-(2-(S-methylsulfonimidoyl)pyridin-4-yl)-5-(trifluoromethyl)tetrahydrofuran-2-carboxamide], for which, under setting [1], the IC50 lay within 100 to 1000 nM.

Regarding `COc1c([C@H]2[C@H](C(=O)NCc3ccc4ncccc4c3)O[C@@](C)(C(F)(F)F)[C@H]2C)ccc(F)c1F` [Compound 294, (2R,3S,4S,5R)-3-(3,4-difluoro-2-methoxyphenyl)-4,5-dimethyl-N-(quinolin-6-ylmethyl)-5-(trifluoromethyl)tetrahydrofuran-2-carboxamide], the IC50 under setting [1] was not below 1000 nM.

Regarding `C[C@H]1[C@@H](c2ccc(F)c(F)c2O[C@H]2C[C@@H](O)C2)[C@H](C(=O)Nc2cncc(C#N)c2)O[C@@]1(C)C(F)(F)F` [Compound 659, (2R,3S,4S,5R)-N-(5-cyanopyridin-3-yl)-3-(3,4-difluoro-2-((1S,3R)-3-hydroxycyclobutoxy)phenyl)-4,5-dimethyl-5-(trifluoromethyl)tetrahydrofuran-2-carboxamide], under setting [1], the IC50 lay in the range of 10 to 100 nM.

For the compound `C[C@@H]1[C@H](c2ccc(F)c(F)c2OC(F)F)[C@@H](C(=O)Nc2ccnnc2)O[C@]1(C)C(F)(F)F` (stereo in doubt) [Compound 63, rel-(2S,3R,4R,5S)-3-(2-(difluoromethoxy)-3,4-difluorophenyl)-4,5-dimethyl-N-(pyridazin-4-yl)-5-(trifluoromethyl)tetrahydrofuran-2-carboxamide], under setting [2], the IC50 is not below 1000 nM.

`CC(C)Oc1c([C@H]2[C@H](C(=O)Nc3ccnc(S(C)(=N)=O)c3)O[C@@](C)(C(F)(F)F)[C@H]2C)ccc(F)c1F` (single isomer, unassigned) [Compound 119]: under setting [1], the IC50 was less than 10 nM.

On to `C[C@H]1[C@@H](c2ccc(F)c(F)c2OCCN2CCOCC2)[C@H](C(=O)Nc2cccnc2)O[C@@]1(C)C(F)(F)F` [Compound 587, (2R,3S,4S,5R)-3-(3,4-difluoro-2-(2-morpholinoethoxy)phenyl)-4,5-dimethyl-N-(pyridin-3-yl)-5-(trifluoromethyl)tetrahydrofuran-2-carboxamide], for which the IC50 under setting [1] is 10 to 100 nM.

As to `COc1c([C@H]2[C@H](C(=O)NC3CS(=O)(=O)C3)O[C@@](C)(C(F)(F)F)[C@H]2C)ccc(F)c1F` [Compound 309, (2R,3S,4S,5R)-3-(3,4-difluoro-2-methoxyphenyl)-N-(1,1-dioxidothietan-3-yl)-4,5-dimethyl-5-(trifluoromethyl)tetrahydrofuran-2-carboxamide], the IC50 under setting [1] was not below 1000 nM.
